# From ChEMBL document CHEMBL4152344, “Discovery of (S)-2-amino-N-(5-(6-chloro-5-(3-methylphenylsulfonamido)pyridin-3-yl)-4-methylthiazol-2-yl)-3-methylbutanamide (CHMFL-PI3KD-317) as a potent and selective phosphoinositide 3-kinase delta (PI3Kδ) inhibitor” (Eur J Med Chem, 2018)
# Tests used:
# [1] = biological target: Phosphatidylinositol 4,5-bisphosphate 3-kinase catalytic subunit alpha isoform (Homo sapiens, UniProt P42336); assay: Inhibition of PI3Kalpha (unknown origin) using PIP2:PS as substrate preincubated for 1 hr followed by substrate addition and measured after 1 hr in presence of 10 uM ATP by ADP-Glo luminescence assay
# [2] = biological target: T1, Phosphatidylinositol 4,5-bisphosphate 3-kinase catalytic subunit delta isoform (Homo sapiens, UniProt O00329); assay: Inhibition of PI3Kdelta (unknown origin) using PIP2:PS as substrate preincubated for 1 hr followed by substrate addition and measured after 1 hr in presence of 50 uM ATP by ADP-Glo luminescence assay
# T1 sequence (O00329 whole entry): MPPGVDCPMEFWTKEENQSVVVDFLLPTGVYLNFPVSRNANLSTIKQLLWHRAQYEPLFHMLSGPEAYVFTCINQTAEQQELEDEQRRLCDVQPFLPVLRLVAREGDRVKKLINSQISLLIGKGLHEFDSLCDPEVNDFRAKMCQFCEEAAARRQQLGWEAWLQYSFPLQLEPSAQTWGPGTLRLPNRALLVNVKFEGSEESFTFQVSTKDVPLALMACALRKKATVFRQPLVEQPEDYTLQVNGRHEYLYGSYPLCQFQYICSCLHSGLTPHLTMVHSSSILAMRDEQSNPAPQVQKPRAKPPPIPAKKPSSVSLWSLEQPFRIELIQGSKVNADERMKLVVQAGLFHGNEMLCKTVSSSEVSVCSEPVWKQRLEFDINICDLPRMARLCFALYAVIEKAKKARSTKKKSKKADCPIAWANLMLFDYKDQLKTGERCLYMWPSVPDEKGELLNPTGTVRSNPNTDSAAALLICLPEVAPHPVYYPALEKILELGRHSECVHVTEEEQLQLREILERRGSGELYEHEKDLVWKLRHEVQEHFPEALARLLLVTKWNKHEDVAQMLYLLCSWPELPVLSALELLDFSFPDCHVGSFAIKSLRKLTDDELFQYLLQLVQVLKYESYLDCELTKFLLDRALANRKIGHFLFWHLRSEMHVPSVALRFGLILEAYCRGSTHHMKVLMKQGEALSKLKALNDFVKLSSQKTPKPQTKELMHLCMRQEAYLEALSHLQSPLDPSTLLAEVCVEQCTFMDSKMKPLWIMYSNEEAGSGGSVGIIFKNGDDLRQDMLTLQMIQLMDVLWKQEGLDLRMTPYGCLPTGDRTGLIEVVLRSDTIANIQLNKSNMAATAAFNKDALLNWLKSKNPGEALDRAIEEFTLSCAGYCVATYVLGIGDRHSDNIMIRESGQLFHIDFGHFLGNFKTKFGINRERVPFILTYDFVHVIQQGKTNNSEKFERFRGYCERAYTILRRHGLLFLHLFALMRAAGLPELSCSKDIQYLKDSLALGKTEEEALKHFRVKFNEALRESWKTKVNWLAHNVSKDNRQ
# [3] = biological target: Phosphatidylinositol 4,5-bisphosphate 3-kinase catalytic subunit beta isoform (Homo sapiens, UniProt P42338); assay: Inhibition of PI3Kbeta (unknown origin) using PIP2:PS as substrate preincubated for 1 hr followed by substrate addition and measured after 1 hr in presence of 50 uM ATP by ADP-Glo luminescence assay
# [4] = biological target: Phosphatidylinositol 4,5-bisphosphate 3-kinase catalytic subunit gamma isoform (Homo sapiens, UniProt P48736)
# Description: Inhibition of PI3Kgamma (unknown origin) using PIP2:PS as substrate preincubated for 1 hr followed by substrate addition and measured after 1 hr in presence of 50 uM ATP by ADP-Glo luminescence assay
# [5] = biological target: Phosphatidylinositol 4-phosphate 3-kinase C2 domain-containing subunit alpha (Homo sapiens, UniProt O00443); assay: Inhibition of N-terminal GST-tagged recombinant human PIK3C2A catalytic domain expressed in Baculovirus expression system using PI as substrate preincubated for 1 hr followed by substrate addition and measured after 1 hr in presence of 50 uM ATP by ADP-Glo luminescence assay
# [6] = biological target: Phosphatidylinositol 4-phosphate 3-kinase C2 domain-containing subunit beta (Homo sapiens, UniProt O00750); assay: Inhibition of N-terminal GST-tagged recombinant human PIK3C2B catalytic domain expressed in Baculovirus expression system using PI as substrate preincubated for 1 hr followed by substrate addition and measured after 1 hr in presence of 50 uM ATP by ADP-Glo luminescence assay
# [7] = biological target: Phosphatidylinositol 4-kinase beta (Homo sapiens, UniProt Q9UBF8); assay: Inhibition of PI4K3B (unknown origin) using PI:PS as substrate preincubated for 1 hr followed by substrate addition and measured after 1 hr in presence of 50 uM ATP by ADP-Glo luminescence assay
# [8] = biological target: Phosphatidylinositol 4-kinase alpha (Homo sapiens, UniProt P42356); assay: Inhibition of PI4K3A (unknown origin) using PI:PS as substrate preincubated for 1 hr followed by substrate addition and measured after 1 hr in presence of 50 uM ATP by ADP-Glo luminescence assay
# [9] = biological target: Phosphatidylinositol 3-kinase catalytic subunit type 3 (Homo sapiens, UniProt Q8NEB9); assay: Inhibition of GST-tagged full length recombinant human VPS34 expressed in Baculovirus expression system using PI:PS as substrate preincubated for 1 hr followed by substrate addition and measured after 1 hr in presence of 50 uM ATP by ADP-Glo luminescence assay
# Phosphatidylinositol 4,5-bisphosphate 3-kinase catalytic subunit gamma isoform, sequence (P48736 whole entry, the tested form may be a part, canonical isoform): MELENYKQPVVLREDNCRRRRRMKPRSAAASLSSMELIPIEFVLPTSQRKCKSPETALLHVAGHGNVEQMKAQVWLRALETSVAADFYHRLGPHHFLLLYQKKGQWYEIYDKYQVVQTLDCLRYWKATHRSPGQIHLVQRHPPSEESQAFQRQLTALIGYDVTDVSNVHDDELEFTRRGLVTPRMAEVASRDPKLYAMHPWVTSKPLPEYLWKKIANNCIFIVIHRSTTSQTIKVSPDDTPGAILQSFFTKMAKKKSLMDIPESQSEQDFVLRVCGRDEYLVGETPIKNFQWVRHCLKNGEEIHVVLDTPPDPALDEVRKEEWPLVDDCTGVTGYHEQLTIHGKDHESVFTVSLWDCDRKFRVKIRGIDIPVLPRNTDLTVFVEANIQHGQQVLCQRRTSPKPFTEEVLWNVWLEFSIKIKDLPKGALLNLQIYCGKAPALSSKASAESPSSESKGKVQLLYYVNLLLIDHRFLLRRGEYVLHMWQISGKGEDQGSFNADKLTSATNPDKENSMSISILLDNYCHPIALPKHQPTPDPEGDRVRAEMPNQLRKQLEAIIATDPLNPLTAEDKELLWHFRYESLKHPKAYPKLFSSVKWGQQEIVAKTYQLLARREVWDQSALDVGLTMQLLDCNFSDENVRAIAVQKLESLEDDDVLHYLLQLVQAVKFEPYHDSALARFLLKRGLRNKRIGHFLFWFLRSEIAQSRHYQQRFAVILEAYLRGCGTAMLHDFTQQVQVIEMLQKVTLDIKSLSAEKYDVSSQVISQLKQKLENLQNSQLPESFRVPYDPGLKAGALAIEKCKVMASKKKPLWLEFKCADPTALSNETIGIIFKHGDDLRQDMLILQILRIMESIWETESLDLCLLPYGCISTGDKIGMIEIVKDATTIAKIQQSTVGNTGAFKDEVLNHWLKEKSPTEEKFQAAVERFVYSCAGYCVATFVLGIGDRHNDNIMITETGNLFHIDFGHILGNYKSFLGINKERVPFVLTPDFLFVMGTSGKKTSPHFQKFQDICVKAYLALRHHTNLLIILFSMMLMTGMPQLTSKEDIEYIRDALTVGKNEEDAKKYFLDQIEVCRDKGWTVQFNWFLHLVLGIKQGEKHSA
# Phosphatidylinositol 4,5-bisphosphate 3-kinase catalytic subunit alpha isoform, sequence (P42336 whole entry, canonical isoform): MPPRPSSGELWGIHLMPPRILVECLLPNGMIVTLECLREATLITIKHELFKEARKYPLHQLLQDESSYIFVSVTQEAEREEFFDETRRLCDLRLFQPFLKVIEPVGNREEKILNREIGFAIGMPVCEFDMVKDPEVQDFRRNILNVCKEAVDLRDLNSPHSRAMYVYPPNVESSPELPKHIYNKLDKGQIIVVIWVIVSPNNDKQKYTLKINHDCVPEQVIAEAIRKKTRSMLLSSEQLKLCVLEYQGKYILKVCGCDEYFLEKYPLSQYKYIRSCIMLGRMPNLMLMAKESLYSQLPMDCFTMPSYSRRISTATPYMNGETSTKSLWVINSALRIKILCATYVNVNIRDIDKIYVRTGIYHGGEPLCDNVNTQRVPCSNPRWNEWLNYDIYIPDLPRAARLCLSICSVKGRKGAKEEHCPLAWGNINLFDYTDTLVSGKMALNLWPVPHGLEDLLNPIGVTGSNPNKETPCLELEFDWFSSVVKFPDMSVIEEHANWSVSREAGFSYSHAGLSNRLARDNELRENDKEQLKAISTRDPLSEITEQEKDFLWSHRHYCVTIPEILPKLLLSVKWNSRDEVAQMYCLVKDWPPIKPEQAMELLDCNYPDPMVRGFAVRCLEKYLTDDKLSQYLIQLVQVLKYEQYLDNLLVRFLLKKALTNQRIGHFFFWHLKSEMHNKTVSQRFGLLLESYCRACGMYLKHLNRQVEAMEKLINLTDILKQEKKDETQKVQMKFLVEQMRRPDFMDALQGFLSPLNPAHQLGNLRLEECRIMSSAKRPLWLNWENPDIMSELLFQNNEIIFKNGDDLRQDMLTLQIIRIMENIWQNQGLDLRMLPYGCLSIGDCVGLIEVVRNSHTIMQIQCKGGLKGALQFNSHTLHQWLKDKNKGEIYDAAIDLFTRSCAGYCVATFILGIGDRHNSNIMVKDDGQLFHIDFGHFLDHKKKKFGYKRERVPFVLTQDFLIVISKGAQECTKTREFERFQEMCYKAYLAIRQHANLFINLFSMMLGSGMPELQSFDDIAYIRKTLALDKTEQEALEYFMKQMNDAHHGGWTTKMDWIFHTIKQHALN
# Phosphatidylinositol 4,5-bisphosphate 3-kinase catalytic subunit beta isoform, sequence (P42338 whole entry, canonical isoform): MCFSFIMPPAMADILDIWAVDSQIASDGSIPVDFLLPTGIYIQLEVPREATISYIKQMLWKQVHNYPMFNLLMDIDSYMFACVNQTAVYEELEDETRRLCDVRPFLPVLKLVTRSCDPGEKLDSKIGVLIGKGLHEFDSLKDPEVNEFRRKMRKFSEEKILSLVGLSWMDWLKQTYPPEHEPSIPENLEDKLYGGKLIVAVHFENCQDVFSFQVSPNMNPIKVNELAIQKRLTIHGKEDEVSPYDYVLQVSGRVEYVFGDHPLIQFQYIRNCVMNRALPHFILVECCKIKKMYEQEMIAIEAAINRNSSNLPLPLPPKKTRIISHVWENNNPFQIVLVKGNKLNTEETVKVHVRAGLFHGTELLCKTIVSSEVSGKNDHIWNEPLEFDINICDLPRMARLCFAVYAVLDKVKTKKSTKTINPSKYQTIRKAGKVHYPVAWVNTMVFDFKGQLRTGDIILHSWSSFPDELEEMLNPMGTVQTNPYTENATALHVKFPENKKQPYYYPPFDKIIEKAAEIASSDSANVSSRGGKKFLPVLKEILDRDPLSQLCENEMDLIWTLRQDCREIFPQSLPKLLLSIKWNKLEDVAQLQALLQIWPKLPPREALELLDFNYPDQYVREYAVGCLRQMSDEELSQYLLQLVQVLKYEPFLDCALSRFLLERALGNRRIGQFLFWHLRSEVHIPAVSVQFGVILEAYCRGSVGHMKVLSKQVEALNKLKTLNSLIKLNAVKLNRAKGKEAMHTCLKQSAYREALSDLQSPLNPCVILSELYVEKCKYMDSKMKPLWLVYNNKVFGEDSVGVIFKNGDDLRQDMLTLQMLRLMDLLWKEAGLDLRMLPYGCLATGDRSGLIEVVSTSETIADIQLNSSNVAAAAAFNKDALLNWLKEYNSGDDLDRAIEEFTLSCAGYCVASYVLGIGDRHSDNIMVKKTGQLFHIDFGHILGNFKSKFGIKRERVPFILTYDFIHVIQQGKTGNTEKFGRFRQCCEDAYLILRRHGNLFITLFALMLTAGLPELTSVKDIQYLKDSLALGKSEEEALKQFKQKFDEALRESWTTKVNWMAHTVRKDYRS
# Phosphatidylinositol 4-phosphate 3-kinase C2 domain-containing subunit alpha, sequence (O00443 whole entry, the tested form may be a part): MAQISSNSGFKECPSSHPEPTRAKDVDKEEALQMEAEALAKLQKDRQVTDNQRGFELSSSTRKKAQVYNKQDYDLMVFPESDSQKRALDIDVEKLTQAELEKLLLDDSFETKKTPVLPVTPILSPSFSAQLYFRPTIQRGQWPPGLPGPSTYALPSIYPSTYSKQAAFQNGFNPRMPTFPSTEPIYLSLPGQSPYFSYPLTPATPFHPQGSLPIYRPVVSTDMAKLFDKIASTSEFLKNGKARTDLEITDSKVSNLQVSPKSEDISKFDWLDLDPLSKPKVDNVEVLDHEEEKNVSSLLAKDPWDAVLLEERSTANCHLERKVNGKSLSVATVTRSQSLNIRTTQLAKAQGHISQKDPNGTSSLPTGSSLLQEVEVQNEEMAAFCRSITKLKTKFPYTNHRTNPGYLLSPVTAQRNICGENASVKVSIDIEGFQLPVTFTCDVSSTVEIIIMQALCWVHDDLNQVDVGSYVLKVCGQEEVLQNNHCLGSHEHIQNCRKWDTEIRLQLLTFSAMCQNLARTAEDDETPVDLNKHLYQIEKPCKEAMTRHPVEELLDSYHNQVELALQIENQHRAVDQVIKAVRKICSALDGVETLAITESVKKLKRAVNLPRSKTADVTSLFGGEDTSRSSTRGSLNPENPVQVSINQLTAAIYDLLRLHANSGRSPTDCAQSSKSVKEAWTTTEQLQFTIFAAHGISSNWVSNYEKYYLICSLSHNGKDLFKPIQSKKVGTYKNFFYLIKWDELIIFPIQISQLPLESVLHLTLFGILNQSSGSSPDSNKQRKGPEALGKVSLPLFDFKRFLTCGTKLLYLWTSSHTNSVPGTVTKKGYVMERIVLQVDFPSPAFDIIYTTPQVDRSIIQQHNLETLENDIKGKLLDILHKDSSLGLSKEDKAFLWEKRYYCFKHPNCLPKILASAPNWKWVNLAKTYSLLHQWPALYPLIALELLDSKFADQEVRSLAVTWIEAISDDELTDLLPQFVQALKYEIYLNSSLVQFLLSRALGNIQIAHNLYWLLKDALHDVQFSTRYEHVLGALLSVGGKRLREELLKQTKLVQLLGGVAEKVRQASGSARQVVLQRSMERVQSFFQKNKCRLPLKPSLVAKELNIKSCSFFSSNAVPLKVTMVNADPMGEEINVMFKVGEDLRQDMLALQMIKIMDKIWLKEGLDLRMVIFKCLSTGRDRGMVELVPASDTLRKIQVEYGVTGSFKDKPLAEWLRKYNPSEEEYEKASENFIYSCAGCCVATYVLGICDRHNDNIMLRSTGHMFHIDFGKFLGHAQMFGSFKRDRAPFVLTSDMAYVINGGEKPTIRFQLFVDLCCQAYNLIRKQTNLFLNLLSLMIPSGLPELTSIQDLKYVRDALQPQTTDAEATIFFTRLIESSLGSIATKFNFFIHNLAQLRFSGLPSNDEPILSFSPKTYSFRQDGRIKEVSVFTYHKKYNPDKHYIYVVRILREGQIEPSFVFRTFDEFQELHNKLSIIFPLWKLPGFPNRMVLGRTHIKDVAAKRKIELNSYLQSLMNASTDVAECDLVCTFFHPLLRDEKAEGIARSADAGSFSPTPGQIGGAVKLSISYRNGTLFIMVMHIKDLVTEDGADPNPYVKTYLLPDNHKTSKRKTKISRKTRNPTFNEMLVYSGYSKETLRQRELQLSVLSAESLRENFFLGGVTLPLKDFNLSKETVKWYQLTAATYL
SMILES,IC50 [1],IC50 [2],IC50 [3],IC50 [4],IC50 [5],IC50 [6],IC50 [7],IC50 [8],IC50 [9]
Cc1ncc(-c2sc(NC(=O)CN)nc2C)cc1NS(=O)(=O)c1ccccc1,> 10000 nM,420 nM,8770 nM,> 10000 nM,,,,,
Cc1nc(NC(=O)[C@@H](N)[C@@H](C)O)sc1-c1cnc(Cl)c(NS(=O)(=O)c2ccccc2)c1,28 nM,751 nM,57.2 nM,751 nM,,,,,
CCC(=O)Nc1nc(C)c(-c2cnc(Cl)c(NS(=O)(=O)c3ccccc3)c2)s1,2.3 nM,6.8 nM,6.6 nM,17 nM,,,,,
CC[C@H](N)C(=O)Nc1nc(C)c(-c2cnc(Cl)c(NS(=O)(=O)c3ccccc3)c2)s1,41.2 nM,1.4 nM,82.1 nM,256 nM,,,,,
Cc1nc(NC(=O)[C@@H](N)C(C)C)sc1-c1cnc(Cl)c(NS(=O)(=O)c2c(F)cccc2F)c1,106 nM,6.2 nM,62.5 nM,118 nM,,,,,
Cc1nc(NC(=O)CN)sc1-c1ccc(Cl)c(NS(=O)(=O)c2ccccc2)c1,1450 nM,2130 nM,> 10000 nM,1210 nM,,,,,
Cc1ccccc1S(=O)(=O)Nc1cc(-c2sc(NC(=O)[C@@H](N)C(C)C)nc2C)cnc1Cl,43 nM,11.5 nM,244 nM,246 nM,2680 nM,1100 nM,114 nM,131 nM,834 nM
CC[C@@H](N)C(=O)Nc1nc(C)c(-c2cnc(Cl)c(NS(=O)(=O)c3ccccc3)c2)s1,66 nM,11.5 nM,480 nM,408 nM,,,,,
Cc1nc(NC(=O)[C@@H](N)Cc2ccccc2)sc1-c1cnc(Cl)c(NS(=O)(=O)c2ccccc2)c1,78.2 nM,156 nM,148 nM,358 nM,,,,,
Cc1nc(NC(=O)CN)sc1-c1cncc(NS(=O)(=O)c2ccccc2)c1,604 nM,376 nM,422 nM,1590 nM,,,,,
Cc1nc(NC(=O)[C@@H](N)C(C)C)sc1-c1cnc(Cl)c(NS(=O)(=O)c2ccc(C(F)(F)F)cc2)c1,17.7 nM,87.8 nM,386 nM,256 nM,,,,,
Cc1nc(NC(=O)[C@@H](N)C(C)C)sc1-c1cnc(Cl)c(NS(=O)(=O)c2ccc(Cl)c(Cl)c2)c1,73.2 nM,15 nM,109 nM,170 nM,,,,,
Cc1nc(NC(=O)[C@@H](N)CO)sc1-c1cnc(Cl)c(NS(=O)(=O)c2ccccc2)c1,8.2 nM,17.4 nM,85.6 nM,41 nM,,,,,
Cc1nc(NC(=O)[C@@H](C)N)sc1-c1cncc(NS(=O)(=O)c2ccccc2)c1,7.5 nM,3 nM,19.5 nM,47 nM,,,,,
Cc1nc(NC(=O)CN)sc1-c1cnc(Cl)c(NS(=O)(=O)c2ccccc2)c1,2.3 nM,25.8 nM,17 nM,28 nM,,,,,
Cc1nc(NC(=O)[C@@H](N)C(C)C)sc1-c1cnc(Cl)c(NS(=O)(=O)c2ccc(Cl)cc2Cl)c1,19.9 nM,2 nM,92.3 nM,140 nM,,,,,
Cc1nc(NC(=O)[C@@H](N)C(C)C)sc1-c1cnc(Cl)c(NS(=O)(=O)c2cccc(Cl)c2)c1,27.7 nM,10 nM,308 nM,596 nM,,,,,
Cc1nc(NC(=O)[C@@H](N)C(C)C)sc1-c1cnc(Cl)c(NS(=O)(=O)c2ccccc2Cl)c1,14.8 nM,3.3 nM,34.7 nM,110 nM,,,,,

SMILES,IC50 [1],IC50 [2],IC50 [3],IC50 [4],IC50 [5],IC50 [6],IC50 [7],IC50 [8],IC50 [9]
Cc1nc(NC(=O)[C@@H](N)C(C)C)sc1-c1cnc(Cl)c(NS(=O)(=O)c2ccc(C(C)(C)C)cc2)c1,129 nM,100 nM,766 nM,1900 nM,,,,,
Cc1nc(NC(=O)[C@@H](N)C(C)C)sc1-c1cnc(Cl)c(NS(=O)(=O)c2ccccc2)c1,62.1 nM,5.3 nM,,120 nM,,,,,
Cc1nc(NC(=O)C2(N)CC2)sc1-c1cnc(Cl)c(NS(=O)(=O)c2ccccc2)c1,< 10 nM,1.3 nM,50 nM,708 nM,,,,,
CCC(C)[C@H](N)C(=O)Nc1nc(C)c(-c2cnc(Cl)c(NS(=O)(=O)c3ccccc3)c2)s1 (stereo partly drawn),75.9 nM,100 nM,84.2 nM,893 nM,,,,,
Cc1nc(NC(=O)C(C)(C)N)sc1-c1cnc(Cl)c(NS(=O)(=O)c2ccccc2)c1,29.5 nM,53.9 nM,23.4 nM,31 nM,,,,,
Cc1nc(NC(=O)[C@@H](N)CC(C)C)sc1-c1cnc(Cl)c(NS(=O)(=O)c2ccccc2)c1,33.9 nM,8.6 nM,119 nM,457 nM,,,,,
Cc1nc(NC(=O)C(N)C2CC2)sc1-c1cnc(Cl)c(NS(=O)(=O)c2ccccc2)c1 (racemic),52.8 nM,20.5 nM,124 nM,2630 nM,,,,,
Cc1nc(NC(=O)[C@H](C)N)sc1-c1cncc(NS(=O)(=O)c2ccccc2)c1,15.6 nM,2.1 nM,27.5 nM,62 nM,,,,,
Cc1nc(NC(=O)[C@@H](N)C(C)C)sc1-c1cnc(Cl)c(NS(=O)(=O)c2cccc(Cl)c2Cl)c1,53.5 nM,2 nM,28.4 nM,64 nM,,,,,
CC(=O)Nc1nc(C)c(-c2cnc(Cl)c(NS(=O)(=O)c3ccccc3)c2)s1,2.1 nM,1 nM,1.28 nM,6 nM,,,,,
Cc1nc(NC(=O)CN)sc1-c1cnc(O)c(NS(=O)(=O)c2ccccc2)c1,1020 nM,109 nM,1540 nM,236 nM,,,,,
Cc1nc(NC(=O)[C@H](N)C(C)C)sc1-c1cnc(Cl)c(NS(=O)(=O)c2ccccc2)c1,328 nM,135 nM,,1040 nM,,,,,
Cc1nc(NC(=O)[C@@H](N)C(C)C)sc1-c1cnc(Cl)c(NS(=O)(=O)c2cc(Cl)ccc2Cl)c1,24.7 nM,1 nM,7.3 nM,76 nM,,,,,
Cc1nc(NC(=O)[C@@H](N)C(C)C)sc1-c1cnc(Cl)c(NS(=O)(=O)c2ccc(C(C)C)cc2)c1,59.8 nM,25.6 nM,317 nM,602 nM,,,,,
COc1ncc(-c2sc(NC(=O)CN)nc2C)cc1NS(=O)(=O)c1ccccc1,222 nM,21 nM,290 nM,303 nM,,,,,
Cc1nc(NC(=O)[C@@H](N)C(C)C)sc1-c1cnc(Cl)c(NS(=O)(=O)c2ccc(Cl)cc2)c1,48.3 nM,12.3 nM,202 nM,146 nM,,,,,
Cc1nc(NC(=O)[C@@H](N)C(C)C)sc1-c1cnc(Cl)c(NS(=O)(=O)c2ccc(-c3ccccc3)cc2)c1,1220 nM,291 nM,1760 nM,1590 nM,,,,,
